Test results as given in patent US5164381A, “Pharmacologically active 1,5-diaryl-3-substituted pyrazoles and method for synthesizing the same” (Ortho Pharmaceutical Corporation, priority 1991, dated 1992).
Read-outs that look alike come from different tables or passages of the source.

Assays:
[1] = tested on: gastrointestinal tract; settings: suboptimal antiinflammatory doses; cited from earlier work
[2] = tested on: total cells in synovial fluid of dog knee joint; test: Immune complex-induced synovitis in the dog knee joint: cellular infiltrate; assay type: in vivo, Mongrel dogs; settings: for cellular infiltrate (in words): 100 mg/kg orally; for cellular infiltrate (in words) / total cell number / cellular infiltration (in words): dog; for total cell number / cellular infiltration (in words): i.v. 25 mg/kg or orally
Protocol: (§1) The accuracy of the puncture was assured by the aspiration of clear, viscous synovial fluid (time 0 sample). The syringe was removed and immune complexes (see below) were injected into the synovial space. The synovial space was re-entered at various time intervals and synovial fluid was withdrawn. The volume of fluid was recorded and then added to 3.0 ml of 0.3% saline. A sample was removed and the number of cells present counted with the use of a hemocytometer and microscope to enumerate the total number of cells in the joint. The remaining sample was centrifuged at 1000×g for 10 minutes and the supernatant analyzed for prostaglandin E2 levels and leukotriene B4 levels.
(§2) To prepare the immune complex, two hundred milligrams of partially purified dog IgG was dissolved in 20 ml 0.9% sterile sodium chloride. The solution was clarified by centrifugation at 2230×G at 20° C. for 10 minutes. A 3 ml volume of the 10.0 mg/ml solution of dog IgG was mixed with 1 ml rabbit anti-dog IgG serum and incubated at room temperature for 20 minutes.
(§3) Four milliliters of saturated ammonium sulfate were added to the mixture to precipitate the complex and all free dog IgG and rabbit gamma globulin. The sample was then centrifuged (as above) and the pellet resuspended in 10 ml 0.9% sterile saline. One ml of this solution was injected into a knee joint.
(§4) Following the intra-articular administration of immune complexes synovial fluid samples were taken at 30 minutes, 1,2,4 and 24 hours, alternating knees for sampling (except at 24 hours when both knees were sampled).
(§5) The articular joint was entered and a zero hour synovial fluid sample was removed. 1 ml of immune complexes was injected into the synovial joint of both legs. […] Synovial fluid samples were taken at 30 minutes, 1, 2 and 4 hours. All samples were analyzed for total granulocyte count using a laser flow cytometer. Prostaglandin and leukotriene concentrations were determined with standard RIA techniques.

[3] = tested on: Leukotriene B4; test: Immune complex-induced synovitis in the dog knee joint: leukotriene B4 levels; assay type: in vivo, Mongrel dogs; settings: for levels of LTB4 in the synovial fluid (in words): 100 mg/kg orally; for levels of LTB4 in the synovial fluid (in words) / LTB4 levels (in words): dog; for LTB4 levels (in words): i.v. 25 mg/kg or orally
Protocol: as §1, §2, §3, §4, §5

[4] = tested on: cyclooxygenase (CO); settings: cited from earlier work
[5] = tested on: Prostaglandin E2; test: Immune complex-induced synovitis in the dog knee joint: prostaglandin E2 levels; assay type: in vivo, Mongrel dogs; settings: for levels of PGE2 in the synovial fluid (in words): 100 mg/kg orally; for levels of PGE2 in the synovial fluid (in words) / PGE2 levels (in words): dog; for Prostaglandin E2 Levels: radioimmunoassay; for PGE2 levels (in words): i.v. 25 mg/kg or orally
Protocol: as §1, §2, §3, §4, §5

[6] = tested on: 5-lipoxygenase (5-LO); test: Inhibition of 5-lipoxygenase (5-LO)
[7] = tested on: cyclooxygenase (CO); test: Inhibition of cyclooxygenase (CO)
[8] = tested on: gastrointestinal tract; test: Ulcerogenicity in rats (gastric lesions, fasted rat model); settings: rats
Source text: (§6) All NSAIDs are inhibitors of CO and their potency against this enzyme activity correlates well with clinical doses used in rheumatic diseases. There is also a correlation between CO inhibition (decreased PGE2) and the ability to induce gastric lesions in the fasted rat model. All NSAIDs induce at least some gastrointestinal lesions within their therapeutic range.

[9] = in vivo; settings: rat, in vivo
Source text: as §6

[10] = tested on: Lewis strain laboratory rats; test: In vivo alleviation of inflammation: polyarthritis (adjuvant, Mycobacterium butyricum) in rats, inhibition of paw volume increase; settings: po; for ED50: Rattus norvegicus; for inhibition in vivo at 15 mg/kg: 15 mpk p.o.
[11] = tested on: bronchospasm / LTB4; test: Arachidonic acid-induced bronchospasm and LTB4 blood levels in anesthetized guinea pigs; assay type: in vivo
Protocol: Intravenous administration of 10 mg/kg AA to anesthetized guinea pigs pretreated with indomethacin (10 mg/kg) and propranolol (0.1 mg/kg) results in a sustained bronchospasm which is associated with increased blood levels of LTB4. […] In the dog, intraarticular injection of rabbit anti-dog-dog IgG immune complexes into the knee joint results in an acute synovitis characterized by an influx of inflammatory cells into the joint space as well as an increase in synovial fluid levels of PGE2 and LTB4.

[12] = tested on: gastrointestinal; test: Gastrointestinal side effects in dogs after one week; assay type: in vivo; settings: doses up to 2700 mg/kg
Source text: as §6

[13] = tested on: interleukin-1; settings: in vitro and in vivo; cited from earlier work
[14] = tested on: C-reactive protein; settings: rheumatoid arthritis patients; cited from earlier work
[15] = rat, read-out: ED50 (effective dose to obtain a 50% inhibition of inflammation)
[16] = 336 h, rat, read-out: % INH. p.o. (percentage inhibition of pad swelling)

## COc1ccc2cc([C@H](C)C(=O)O)ccc2c1 [Naproxen, reference compound]
[1]
  ulcers in rats (in words): significant ulcers
[2]
  cellular infiltrate (in words): inhibited the cell infiltration
  total cell number / cellular infiltration (in words): inhibits
[2]; 100 mg/kg p.o., 0.5 HR
  Cellular Infiltrate Total Cells (× 10^6): 0.32 ± 0.11 × 10^6
[2]; 100 mg/kg p.o., 1 HR
  Cellular Infiltrate Total Cells (× 10^6): 0.02 ± 0.02 × 10^6
[2]; 100 mg/kg p.o., 2 HR
  % I (inhibition) of total cells: 36.6%
  Cellular Infiltrate Total Cells (× 10^6): 2.69 ± 0.63 × 10^6
[2]; 100 mg/kg p.o., 4 HR
  % I (inhibition) of total cells: 44.2%
  Cellular Infiltrate Total Cells (× 10^6): 27.6 ± 24 × 10^6
[3]
  levels of LTB4 in the synovial fluid (in words): increased the LTB4 levels
  LTB4 levels (in words): does not decrease
[3]; 100 mg/kg p.o., 0.5 Hr
  % I (inhibition) of leukotriene B4: 10.5%
  Leukotriene B4: 1.11 ± 0.36 ng/ml Synovial Fluid
[3]; 100 mg/kg p.o., 1 Hr
  % I (inhibition) of leukotriene B4: -26.7%
  Leukotriene B4: 3.27 ± 1.53 ng/ml Synovial Fluid
[3]; 100 mg/kg p.o., 2 Hr
  % I (inhibition) of leukotriene B4: -47.4%
  Leukotriene B4: 5.94 ± 1.33 ng/ml Synovial Fluid
[3]; 100 mg/kg p.o., 4 Hr
  % I (inhibition) of leukotriene B4: -140%
  Leukotriene B4: 3.36 ± 1.28 ng/ml Synovial Fluid
[4]
  inhibition of cyclooxygenase enzyme by NSAIDs (in words): only inhibit the cyclooxygenase enzyme
[5]
  levels of PGE2 in the synovial fluid (in words): inhibited
  PGE2 levels (in words): inhibits PGE 2 levels
[5]; 100 mg/kg p.o., 0.5 Hr
  Prostaglandin E2 Levels: 0.83 ± 0.24 ng/mL
[5]; 100 mg/kg p.o., 1 Hr
  Prostaglandin E2 Levels: 1.67 ± 0.73 ng/mL
[5]; 100 mg/kg p.o., 2 Hr
  % I (inhibition) of prostaglandin E2 levels: 62.0%
  Prostaglandin E2 Levels: 1.88 ± 0.86 ng/mL
[5]; 100 mg/kg p.o., 4 Hr
  % I (inhibition) of prostaglandin E2 levels: 44.9%
  Prostaglandin E2 Levels: 2.2 ± 0.97 ng/mL

## COc1ccc(-n2nc(CCC(=O)N(C)O)cc2-c2ccc(Cl)cc2)cc1 [Compound 3, 3-[5-(4-Chlorophenyl)-1-(4-methoxyphenyl)-3-pyrazolyl]-N-hydroxy-N-methylpropanamide]
[2]; 25 mg/kg p.o., 0.5 HR
  Cellular Infiltrate Total Cells (× 10^6): 0.12 ± 0.04 × 10^6
[2]; 25 mg/kg p.o., 1 HR
  Cellular Infiltrate Total Cells (× 10^6): 0.39 ± 0.19 × 10^6
[2]; 25 mg/kg p.o., 2 HR
  % I (inhibition) of total cells: 7.4%
  Cellular Infiltrate Total Cells (× 10^6): 5.74 ± 2.5 × 10^6
[2]; 25 mg/kg p.o., 4 HR
  % I (inhibition) of total cells: 6.5%
  Cellular Infiltrate Total Cells (× 10^6): 46.3 ± 27.9 × 10^6
[2]
  cellular infiltrate (in words): reduces the cellular infiltrate
  total cell number / cellular infiltration (in words): significantly inhibits
[2]; 100 mg/kg p.o., 0.5 HR
  Cellular Infiltrate Total Cells (× 10^6): 0.26 ± 0.23 × 10^6
[2]; 100 mg/kg p.o., 1 HR
  Cellular Infiltrate Total Cells (× 10^6): 0.13 ± 0.07 × 10^6
[2]; 100 mg/kg p.o., 2 HR
  % I (inhibition) of total cells: 78%
  Cellular Infiltrate Total Cells (× 10^6): 1.35 ± 0.55 × 10^6
[2]; 100 mg/kg p.o., 4 HR
  % I (inhibition) of total cells: 55.2%
  Cellular Infiltrate Total Cells (× 10^6): 22.2 ± 6.6 × 10^6
[6]
  inhibition of 5-lipoxygenase (5-LO) (in words): inhibits both the cyclooxygenase (CO) and 5-lipoxygenase (5-LO) enzymes
[7]
  inhibition of cyclooxygenase (CO) (in words): inhibits both the cyclooxygenase (CO) and 5-lipoxygenase (5-LO) enzymes
[3]; 25 mg/kg p.o., 1 Hr
  Leukotriene B4: 3.00 ± 1.2 ng/ml Synovial Fluid
[3]; 25 mg/kg p.o., 2 Hr
  Leukotriene B4: 4.60 ± 2.10 ng/ml Synovial Fluid
[3]; 25 mg/kg p.o., 4 Hr
  Leukotriene B4: 1.20 ± 0.6 ng/ml Synovial Fluid
[3]
  levels of LTB4 in the synovial fluid (in words): reduces
  LTB4 levels (in words): significantly inhibits
[3]; 100 mg/kg p.o., 0.5 Hr
  % I (inhibition) of leukotriene B4: 25%
  Leukotriene B4: 0.93 ± 0.26 ng/ml Synovial Fluid
[3]; 100 mg/kg p.o., 1 Hr
  % I (inhibition) of leukotriene B4: 69%
  Leukotriene B4: 0.80 ± 0.09 ng/ml Synovial Fluid
[3]; 100 mg/kg p.o., 2 Hr
  % I (inhibition) of leukotriene B4: 39%
  Leukotriene B4: 2.46 ± 0.94 ng/ml Synovial Fluid
[3]; 100 mg/kg p.o., 4 Hr
  % I (inhibition) of leukotriene B4: 37%
  Leukotriene B4: 0.88 ± 0.23 ng/ml Synovial Fluid
[3]; administered orally, dogs
  inhibition of leukotriene production (in words): effective inhibitor of leukotriene production
[8]
  ulcerogenicity in the gastrointestinal tract (in words): reduced ulcerogenic activity
[8]; listed as compound 3
  ulcerogenicity in the gastrointestinal tract (in words): lack of ulcerogenicity in the gastrointestinal tract
[9]
  TD50: 173 mg/kg
  selectivity ratio: 58
[10]; adjuvant rat, read-out: dose which inhibits the inflammatory response of the adjuvant rat by 50 percent (ED50)
  ED50: 3 mg/kg
[10]; [15]
  ED50: 4.1 mg/kg
[11]; administered orally, guinea pigs
  inhibition of leukotriene production (in words): effective inhibitor of leukotriene production
[12]
  significant gastrointestinal side effects (in words): no significant gastrointestinal side effects
[5]; 25 mg/kg p.o., 1 Hr
  Prostaglandin E2 Levels: 2.34 ± 1 ng/mL
[5]; 25 mg/kg p.o., 2 Hr
  % I (inhibition) of prostaglandin E2 levels: 38.2%
  Prostaglandin E2 Levels: 2.96 ± 0.92 ng/mL
[5]; 25 mg/kg p.o., 4 Hr
  % I (inhibition) of prostaglandin E2 levels: 44.6%
  Prostaglandin E2 Levels: 2.27 ± 0.76 ng/mL
[5]
  levels of PGE2 in the synovial fluid (in words): reduces
  PGE2 levels (in words): significantly inhibits
[5]; 100 mg/kg p.o., 0.5 Hr
  Prostaglandin E2 Levels: 1.8 ± 1.29 ng/mL
[5]; 100 mg/kg p.o., 1 Hr
  Prostaglandin E2 Levels: 1.5 ± 1.05 ng/mL
[5]; 100 mg/kg p.o., 2 Hr
  % I (inhibition) of prostaglandin E2 levels: 97.9%
  Prostaglandin E2 Levels: 0.1 ± 0.08 ng/mL
[5]; 100 mg/kg p.o., 4 Hr
  % I (inhibition) of prostaglandin E2 levels: 42.4%
  Prostaglandin E2 Levels: 2.36 ± 0.53 ng/mL

## NC(=O)N1C(=O)C(=C(O)c2cccs2)c2cc(Cl)ccc21 [CP 66,248]
[13]
  inhibition of interleukin-1 levels (in words): could inhibit interleukin-1 levels in vitro and in vivo
[14]
  C-reactive protein levels (in words): reduction of C-reactive protein levels

## COc1ccc2c(c1)c(CC(=O)O)c(C)n2C(=O)c1ccc(Cl)cc1 [indomethacin]
[4]
  inhibition of cyclooxygenase enzyme by NSAIDs (in words): only inhibit the cyclooxygenase enzyme
[11]; AA i.v. 10 mg/kg
  effect on LTB4 levels (in words): no effect
  effect on bronchospasm (in words): no effect

## COc1ccc(-n2nc(CCCNC(=O)C(=O)NO)cc2-c2ccc(Cl)cc2)cc1 [Compound 164]
[10]; [16]
  inhibition in vivo at 15 mg/kg: 13%

## COc1ccc(-n2nc(CCC(=O)NCC(=O)N(C)O)cc2-c2ccc(Cl)cc2)cc1 [Compound 89]
[10]; [16]
  inhibition in vivo at 15 mg/kg: 57%

## COc1ccc(-n2nc(CCC(=O)N(C)OC(=O)CCC(=O)O)cc2-c2ccc(C)cc2)cc1 [Compound 130]
[10]; [15]
  ED50: 11.5 mg/kg

## Cc1ccc(-n2nc(CCCO)cc2-c2ccc(Cl)cc2)cc1 [Compound 37]
[10]; 336 h, 25 mpk p.o., rat, read-out: % INH. p.o. (percentage inhibition of pad swelling)
  inhibition in vivo at 25 mg/kg: 41%
